52 molecules from PubChem BioAssay AID1996 can be followed below.

≈ marks a conversion by molar mass, not a printed value. Some results are limits rather than exact numbers.

For the data set the following is noted: buffer; pH 7.4; 200.0 µM.
On to `Cc1n[nH]c(=S)n1-c1ccc(Cl)cc1`, for which the solubility (kinetic) (as a rule, solubility judged after dilution from a stock solution rather than from solid) is > 0.0339 mg/mL.

With `Nc1c(Cl)cnc(C(Cl)(Cl)Cl)c1Cl`, the solubility (kinetic) was found to be 0.0196 mg/mL (≈ 69.9 µM).

Take `CSc1ccc(NC(N)=S)cc1`: the kinetic solubility is > 0.0297 mg/mL.

Regarding `O=C(Nc1nnc(-c2ccco2)o1)c1ccc(N2C(=O)CCC2=O)cc1`, the solubility (kinetic) is > 0.0528 mg/mL.

As to `O=C(O)Cn1c(=O)c(-c2ccccc2)nc2ccccc21`, the kinetic solubility is > 0.042 mg/mL.

Regarding `CCCC/C(O)=C1\C(=O)CC(C)(C)CC1=Nc1ccc(N)cc1`, the solubility (kinetic) is > 0.0472 mg/mL.

`FC(F)(F)c1ccc(-n2cnc3ccccc32)nc1` came in with a solubility (kinetic) of 0.0135 mg/mL (≈ 51.3 µM).

On to `CC(=O)N1CCCSC1=Nc1ccccc1`, for which the solubility (kinetic) is > 0.0351 mg/mL.

`CC(NC(=O)CN(C)Cc1cccc(Cl)c1)c1ccccc1` (configuration not stated) showed a solubility (kinetic) of 0.0386 mg/mL (≈ 122 µM).

`O=S(=O)(Nc1ccncc1)c1cc(Cl)ccc1Cl`: the kinetic solubility was 0.0212 mg/mL (≈ 69.9 µM).

In the case of `O=C(Nc1cccc2cccnc12)c1ccccc1Cl`, the solubility (kinetic) worked out at 0.0003 mg/mL (≈ 1.06 µM).

The molecule `COc1ccc(C(=O)OCC(=O)NC(C)CCc2ccccc2)cc1` (configuration not stated) had a solubility (kinetic) of 0.0101 mg/mL (≈ 29.6 µM).

In the case of `Cc1ccc(C(=O)CN2CCN(c3ccccn3)CC2)c(C)c1`, the kinetic solubility was determined as 0.0255 mg/mL (≈ 82.4 µM).

In the case of `Cc1onc(-c2ccccc2)c1C(=O)N=C(N)c1ccc(C(F)(F)F)cc1`, the solubility (kinetic) was < 0.0003 mg/mL.

Turning to `CCOc1ccc(NC(=O)c2cc(Cl)nc3ccccc23)cc1`, the kinetic solubility came to 0.0004 mg/mL (≈ 1.22 µM).

As for `COc1ccc(C(C)=O)cc1COC(=O)CNC(=O)C1CCCCC1`, the solubility (kinetic) was > 0.0521 mg/mL.

Take `O=c1[nH]c2ccc(S(=O)(=O)Nc3ccccc3O)cc2[nH]1`: the kinetic solubility was > 0.0458 mg/mL.

Consider `COc1ccc(CCN2CC(C(=O)NCC(c3ccccc3)N(C)C)CC2=O)cc1OC` (configuration not stated), for which the kinetic solubility was > 0.0659 mg/mL.

`Brc1ccc(CN2CCCCCC2)cc1` gave a kinetic solubility of 0.0125 mg/mL (≈ 46.6 µM).

`COc1cc(C)c(NC(=O)c2cccc(S(=O)(=O)N3CCCC3)c2)cc1OC` returned a kinetic solubility of 0.0325 mg/mL (≈ 80.3 µM).

Molecule `CCOC(=O)c1nc(-c2ccccc2)sc1C(C)=O` showed a kinetic solubility of 0.0359 mg/mL (≈ 130 µM).

`CC1C(=O)N2CCCc3cc(NC(=O)CC(C)(C)C)cc1c32` (configuration not stated) registered a solubility (kinetic) of 0.0397 mg/mL (≈ 132 µM).

On to `CC(C)c1ccccc1NC(=S)N(C)C`, for which the kinetic solubility was > 0.0334 mg/mL.

With `CC(C)(C)S(=O)(=O)Cc1nc(-c2ccc(Cl)c(Cl)c2)cs1`, the kinetic solubility was < 0.0008 mg/mL.

For `COc1ccc(-c2nc(-c3cccnc3)no2)cc1`, the kinetic solubility stood at 0.0021 mg/mL (≈ 8.29 µM).

In the case of `CCCc1nc2oc3c(Cl)ncnc3c2c2c1CCCC2`, the solubility (kinetic) was < 0.0002 mg/mL.

In the case of `Br.COc1ccc(C(=O)CN2CCCCC2)cc1`, the kinetic solubility was > 0.0471 mg/mL.

Regarding `OCCNc1nc2ccccc2nc1NCCO`, the kinetic solubility was found to be 0.0352 mg/mL (≈ 142 µM).

Take `CCC(=O)N(Cc1cc(=O)[nH]c2ccccc12)c1ccc(OC)cc1`: the solubility (kinetic) stood at 0.0471 mg/mL (≈ 140 µM).

In the case of `COc1ccc(NC(=O)N2CCOCC2)cc1`, the kinetic solubility was > 0.0354 mg/mL.

On to `CC(C)Cn1c(-c2ccc(Br)cc2)c[nH]c1=S`, for which the solubility (kinetic) is 0.0057 mg/mL (≈ 18.3 µM).

In the case of `N#Cc1c(C(F)(F)F)cc(-c2cccs2)nc1N1CCCCC1`, the solubility (kinetic) is < 0.0002 mg/mL.

Regarding `COc1cc(C(=O)OCC(=O)N2CCCC2)cc2c1OCCO2`, the solubility (kinetic) was > 0.0482 mg/mL.

In turn, `CC1CCC(NC(=O)c2cc3ccccc3cc2O)CC1` (configuration not stated) gave a kinetic solubility of 0.0043 mg/mL (≈ 15.2 µM).

`Oc1ccccc1C(=S)N1CCN(C(=S)c2ccccc2O)CC1` displayed a solubility (kinetic) of 0.0051 mg/mL (≈ 14.2 µM).

`CC(C)Oc1ccc(C2CC(=O)N(C)C2=O)cc1` (configuration not stated): the kinetic solubility was > 0.0371 mg/mL.

With `O=C(Nc1cccc(Cl)c1)C1CCCN(c2cnccn2)C1` (configuration not stated), the solubility (kinetic) was > 0.0475 mg/mL.

With `CC(C)(C)CC(=O)Nc1cc2c3c(c1)CCN3C(=O)CC2`, the kinetic solubility was > 0.043 mg/mL.

`O=C(c1cnsn1)N1CCC(CO)(Cc2cccc(F)c2)CC1` displayed a kinetic solubility of 0.0444 mg/mL (≈ 132 µM).

`Cc1ccc(CNc2c(C=O)c(=O)[nH]c3ccccc23)cc1` returned a solubility (kinetic) of 0.0022 mg/mL (≈ 7.53 µM).

The molecule `CC1Sc2ccc(C(=O)NCc3ccccc3Cl)cc2NC1=O` (configuration not stated) returned a kinetic solubility of 0.0041 mg/mL (≈ 11.8 µM).

`COC(=O)c1cccnc1Oc1ccccc1` gave a kinetic solubility of 0.0265 mg/mL (≈ 116 µM).

In the case of `Cc1ccccc1Oc1nc2c(c(=O)n(C)c(=O)n2C)n1C`, the solubility (kinetic) is > 0.045 mg/mL.

On to `O=C(O)CNS(=O)(=O)c1ccc2[nH]c(=O)c(=O)[nH]c2c1`, for which the solubility (kinetic) was > 0.0449 mg/mL.

As to `O=C(O)CC1(CC(=O)Nc2ccccc2Br)CCCC1`, the kinetic solubility is > 0.051 mg/mL.

In turn, `COc1ccc(S(=O)(=O)NC2CC2)cc1Cl` registered a solubility (kinetic) of 0.0353 mg/mL (≈ 135 µM).

As for `CCCCNC(=S)N1CCn2cccc2C1c1ccc(F)cc1` (configuration not stated), the kinetic solubility is 0.0103 mg/mL (≈ 31.1 µM).

Regarding `CCC1Oc2ccccc2N(CC(=O)NCC2CCCO2)C1=O` (configuration not stated), the kinetic solubility amounted to 0.0445 mg/mL (≈ 140 µM).

Consider `CCOc1ccccc1NC(=O)c1oc2ccccc2c1NC(=O)C1CCCO1` (configuration not stated), for which the solubility (kinetic) is < 0.0004 mg/mL.

Take `Cc1cc(NS(=O)(=O)c2ccc(NC(=O)/C=C/c3ccccc3)cc2)nc(C)n1`: the solubility (kinetic) was > 0.0613 mg/mL.

Molecule `CCCCOc1ccc(-c2ncc(N)cn2)cc1` came in with a kinetic solubility of 0.0242 mg/mL (≈ 99.5 µM).

Molecule `Cc1ccc(NC(=S)NCC(O)c2ccccc2)c(C)c1` (configuration not stated) showed a solubility (kinetic) of 0.0443 mg/mL (≈ 147 µM).
